Laboratory results from patent US20260022142A1, “MACROCYCLIC IMMUNOMODULATORS” (Bristol-Myers Squibb Company, priority 2022, published 2026).
Bridge positions count the residues as written; N and C are the ends. Square brackets hold non-standard residues; d marks the D form. Peptide text beside a SMILES is read from it. * marks the point of attachment. Bip = N[C@@H](Cc1ccc(-c2ccccc2)cc1)C(=O)O; Phe(3-Me) = Cc1cccc(C[C@H](N)C(=O)O)c1; Val(3-OH) = CC(C)(O)[C@H](N)C(=O)O; dAla(cPr) = N[C@H](CC1CC1)C(=O)O; 4Pal = N[C@@H](Cc1ccncc1)C(=O)O; Cha = N[C@@H](CC1CCCCC1)C(=O)O; Cit = NC(=O)NCCC[C@H](N)C(=O)O; Carboxymethyl = O=C(O)C*; Orn = NCCC[C@H](N)C(=O)O; Aun = NCCCCCCCCCCC(=O)O; Dab = NCC[C@H](N)C(=O)O; Dap = NC[C@H](N)C(=O)O; AEEA = NCCOCCOCC(=O)O

Biological target: T1, PD-1/PD-L1 interaction (PE-labeled human PD-L1-Ig binding to Jurkat cell line over-expressing human PD-1) (Homo sapiens, UniProt Q15116)
T1 construct: expressed in transfected cells; host or cells: Jurkat
T1 sequence (Q15116 25-288): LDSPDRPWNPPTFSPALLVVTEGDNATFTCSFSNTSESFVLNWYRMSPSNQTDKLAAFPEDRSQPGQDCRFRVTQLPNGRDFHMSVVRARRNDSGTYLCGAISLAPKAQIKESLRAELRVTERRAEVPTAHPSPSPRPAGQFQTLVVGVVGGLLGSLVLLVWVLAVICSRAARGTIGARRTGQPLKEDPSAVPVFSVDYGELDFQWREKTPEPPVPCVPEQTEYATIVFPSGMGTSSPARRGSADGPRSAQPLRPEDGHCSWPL
Experiment: Jurkat-PD-1 Cell Binding High-Content Screening Assay (CBA)
Assay type: cell-based
Conditions: Jurkat cell line over-expressing human PD-1; PE-labeled PD-L1-Ig 20 nM final; read-out: Jurkat hPD1-PDL1 IC50
Summary of the method: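 Jurkat-hPD-1 cells, DMEM/10% FCS; cpd 2 h 37° C; PE-PD-L1-Ig 20 nM final, 1 h; 4% PFA fix + Hoechst 33342, 3× dPBS wash; high-content imaging read-out.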

Row | SMILES | IC50 [nM]
1 | Cc1cccc(C[C@@H]2NC(=O)[C@H](CC(=O)O)NC(=O)[C@H](Cc3ccc(OCC(=O)O)cc3)NC(=O)[C@H](CN)NC(=O)CSC[C@@H](C(=O)N[C@@H](CC(=O)O)C(=O)NCCOCCOCC(=O)NCCCCCCCCCCC(=O)O)NC(=O)[C@@H](CO)NC(=O)[C@H](C(C)C)NC(=O)[C@H](CC3CCCCC3)NC(=O)[C@H](CCN)NC(=O)[C@@H](CC(C)C)NC(=O)[C@H](CCCN)NC(=O)[C@H](CCCNC(N)=O)NC(=O)[C@H](Cc3ccc(-c4ccccc4)cc3)NC(=O)[C@H](C(C)C)NC2=O)c1 [Compound 2021] ({CH2CO}-[Dap]Y(Carboxymethyl)D[Phe(3-Me)]V[Bip][Cit][Orn][dL][Dab][Cha]V[dS]CD[AEEA][Aun]-OH; thioether N-14) | 30.8
2 | Cc1cccc(C[C@@H]2NC(=O)[C@H](CC(=O)O)NC(=O)[C@H](Cc3ccc(OCC(=O)O)cc3)NC(=O)[C@H](Cc3ccncc3)NC(=O)CSC[C@@H](C(=O)N[C@@H](CCN)C(=O)NCCOCCOCC(=O)NCCCCCCCCCCC(=O)O)NC(=O)[C@H](CN)NC(=O)[C@H](C(C)(C)O)NC(=O)[C@H](CC3CCCCC3)NC(=O)[C@H](CCN)NC(=O)[C@@H](CC(C)C)NC(=O)[C@H](CCCN)NC(=O)[C@H](Cc3ccc(OCC(=O)O)cc3)NC(=O)[C@H](Cc3ccc(-c4ccccc4)cc3)NC(=O)[C@H](Cc3ccc(OCC(=O)O)cc3)NC2=O)c1 [Compound 2022] ({CH2CO}-[4Pal]Y(Carboxymethyl)D[Phe(3-Me)]Y(Carboxymethyl)[Bip]Y(Carboxymethyl)[Orn][dL][Dab][Cha][Val(3-OH)][Dap]C[Dab][AEEA][Aun]-OH; thioether N-14) | 59.5
3 | Cc1cccc(C[C@@H]2NC(=O)[C@H](CC(=O)O)NC(=O)[C@H](Cc3ccc(OCC(=O)O)cc3)NC(=O)[C@H](CN)NC(=O)CSC[C@@H](C(=O)N[C@@H](CCN)C(=O)NCCOCCOCC(=O)NCCCCCCCCCCC(=O)O)NC(=O)[C@H](CO)NC(=O)[C@H](C(C)(C)O)NC(=O)[C@H](CC3CCCCC3)NC(=O)[C@H](CCN)NC(=O)[C@@H](CC(C)C)NC(=O)[C@H](CCCN)NC(=O)[C@H](Cc3ccc(OCC(=O)O)cc3)NC(=O)[C@H](Cc3ccc(-c4ccccc4)cc3)NC(=O)[C@H](Cc3ccc(OCC(=O)O)cc3)NC2=O)c1 [Compound 2023] ({CH2CO}-[Dap]Y(Carboxymethyl)D[Phe(3-Me)]Y(Carboxymethyl)[Bip]Y(Carboxymethyl)[Orn][dL][Dab][Cha][Val(3-OH)]SC[Dab][AEEA][Aun]-OH; thioether N-14) | 10.2
4 | Cc1cccc(C[C@@H]2NC(=O)[C@H](CC(=O)O)NC(=O)[C@H](Cc3ccc(OCC(=O)O)cc3)NC(=O)[C@H](CN)NC(=O)CSC[C@@H](C(=O)N[C@@H](CCN)C(=O)NCCCCCCCCCCC(N)=O)NC(=O)[C@H]([C@@H](C)O)NC(=O)[C@H](C(C)C)NC(=O)[C@H](CC3CCCCC3)NC(=O)[C@H](CCN)NC(=O)[C@@H](CC(C)C)NC(=O)[C@H](CCCN)NC(=O)[C@H](CCCNC(=N)N)NC(=O)[C@H](Cc3ccc(-c4ccccc4)cc3)NC(=O)[C@H](C(C)C)NC2=O)c1 [Compound 2025] ({CH2CO}-[Dap]Y(Carboxymethyl)D[Phe(3-Me)]V[Bip]R[Orn][dL][Dab][Cha]VTC[Dab][Aun]-NH2; thioether N-14) | 20.5
5 | Cc1cccc(C[C@@H]2NC(=O)[C@H](CC(=O)O)NC(=O)[C@H](Cc3ccc(OCC(=O)O)cc3)NC(=O)[C@H](CN)NC(=O)CSC[C@@H](C(=O)N[C@@H](CCN)C(=O)NCCCCCCCCCCC(=O)O)NC(=O)[C@H](CCCCN)NC(=O)[C@H](C(C)C)NC(=O)[C@H](CC3CCCCC3)NC(=O)[C@H](CCN)NC(=O)[C@@H](CC3CC3)NC(=O)[C@H](CCCN)NC(=O)[C@H](C(C)C)NC(=O)[C@H](Cc3ccc(-c4ccccc4)cc3)NC(=O)[C@H](C(C)C)NC2=O)c1 [Compound 2026] ({CH2CO}-[Dap]Y(Carboxymethyl)D[Phe(3-Me)]V[Bip]V[Orn][dAla(cPr)][Dab][Cha]VKC[Dab][Aun]-OH; thioether N-14) | 10.2
